A value given as a limit tells only on which side of the number the result lay.

The target of assay [1] is Voltage-gated inwardly rectifying potassium channel KCNH2 (Homo sapiens, UniProt Q12809). The assay is classed as functional. The conditions noted are these: read-out: AC50.
The target of assay [2] is Kappa-type opioid receptor (Homo sapiens, UniProt P41145).
Assay [3] has as its target T1, 5-hydroxytryptamine receptor 2C (Homo sapiens, UniProt P28335).
T1 sequence (P28335 whole entry): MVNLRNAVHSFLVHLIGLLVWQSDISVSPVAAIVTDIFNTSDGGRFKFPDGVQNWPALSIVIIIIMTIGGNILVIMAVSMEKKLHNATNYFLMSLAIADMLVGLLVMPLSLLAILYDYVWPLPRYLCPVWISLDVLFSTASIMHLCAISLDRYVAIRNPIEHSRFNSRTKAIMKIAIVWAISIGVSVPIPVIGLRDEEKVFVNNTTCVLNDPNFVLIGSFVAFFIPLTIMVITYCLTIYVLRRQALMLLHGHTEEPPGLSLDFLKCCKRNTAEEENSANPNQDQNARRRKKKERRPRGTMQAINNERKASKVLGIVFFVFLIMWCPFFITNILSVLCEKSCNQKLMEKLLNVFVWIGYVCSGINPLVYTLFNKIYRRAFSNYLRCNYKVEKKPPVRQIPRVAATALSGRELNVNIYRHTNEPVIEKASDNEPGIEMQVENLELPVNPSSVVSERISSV

Assay [4] concerns the target Beta-1 adrenergic receptor (Homo sapiens, UniProt P08588). The format is functional.
The target of assay [5] is Gamma-aminobutyric acid receptor subunit alpha-1 (Rattus norvegicus, UniProt P62813). The assay is classed as functional.
Assay [6] has as its target Neuronal acetylcholine receptor subunit alpha-4 (Homo sapiens, UniProt P43681).
Assay [7] has as its target T2, Type-1 angiotensin II receptor (Homo sapiens, UniProt P30556).
T2 sequence (P30556 whole entry): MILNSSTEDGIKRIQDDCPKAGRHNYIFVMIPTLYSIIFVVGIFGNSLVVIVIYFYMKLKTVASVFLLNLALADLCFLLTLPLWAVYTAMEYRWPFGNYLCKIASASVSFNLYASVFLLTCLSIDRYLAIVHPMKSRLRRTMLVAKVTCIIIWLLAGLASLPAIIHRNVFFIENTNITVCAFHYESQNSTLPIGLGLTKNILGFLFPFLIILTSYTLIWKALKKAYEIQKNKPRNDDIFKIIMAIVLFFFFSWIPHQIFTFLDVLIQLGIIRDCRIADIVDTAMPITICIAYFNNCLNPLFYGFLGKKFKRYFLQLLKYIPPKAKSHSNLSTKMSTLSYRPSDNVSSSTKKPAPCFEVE

For assay [8], the target named is T3, Muscarinic acetylcholine receptor M2 (Homo sapiens, UniProt P08172).
T3 sequence (P08172 whole entry): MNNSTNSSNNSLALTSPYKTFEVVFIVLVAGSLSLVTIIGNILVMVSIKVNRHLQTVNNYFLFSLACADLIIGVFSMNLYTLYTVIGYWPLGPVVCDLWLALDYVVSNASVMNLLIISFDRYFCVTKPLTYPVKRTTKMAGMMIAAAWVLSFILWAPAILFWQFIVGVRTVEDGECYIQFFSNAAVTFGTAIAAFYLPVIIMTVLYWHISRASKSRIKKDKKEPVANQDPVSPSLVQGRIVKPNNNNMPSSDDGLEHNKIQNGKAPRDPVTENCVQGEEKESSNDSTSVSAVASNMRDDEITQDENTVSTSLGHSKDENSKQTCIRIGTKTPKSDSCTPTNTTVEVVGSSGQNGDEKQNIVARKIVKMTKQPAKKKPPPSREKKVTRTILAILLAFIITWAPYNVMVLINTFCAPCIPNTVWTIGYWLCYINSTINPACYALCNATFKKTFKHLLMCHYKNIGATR
The assay is classed as functional, cell-based.

Assay [9] has as its target T4, Equilibrative nucleoside transporter 1 (Homo sapiens, UniProt Q99808).
T4 sequence (Q99808 whole entry): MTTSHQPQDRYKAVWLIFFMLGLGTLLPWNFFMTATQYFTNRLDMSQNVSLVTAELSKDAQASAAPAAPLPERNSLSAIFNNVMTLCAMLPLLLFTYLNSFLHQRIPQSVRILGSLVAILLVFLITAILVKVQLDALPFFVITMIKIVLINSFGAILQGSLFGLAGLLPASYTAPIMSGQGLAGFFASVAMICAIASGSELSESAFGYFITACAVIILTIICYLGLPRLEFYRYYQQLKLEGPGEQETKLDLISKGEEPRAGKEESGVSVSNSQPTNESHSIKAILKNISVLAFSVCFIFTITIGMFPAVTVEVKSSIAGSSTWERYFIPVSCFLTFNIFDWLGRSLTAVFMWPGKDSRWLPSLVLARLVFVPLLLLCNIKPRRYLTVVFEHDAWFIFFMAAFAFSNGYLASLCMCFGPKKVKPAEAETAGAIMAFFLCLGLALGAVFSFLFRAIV

The target of the next assay is T5, B2 bradykinin receptor (Homo sapiens, UniProt P30411).
T5 sequence (P30411 whole entry): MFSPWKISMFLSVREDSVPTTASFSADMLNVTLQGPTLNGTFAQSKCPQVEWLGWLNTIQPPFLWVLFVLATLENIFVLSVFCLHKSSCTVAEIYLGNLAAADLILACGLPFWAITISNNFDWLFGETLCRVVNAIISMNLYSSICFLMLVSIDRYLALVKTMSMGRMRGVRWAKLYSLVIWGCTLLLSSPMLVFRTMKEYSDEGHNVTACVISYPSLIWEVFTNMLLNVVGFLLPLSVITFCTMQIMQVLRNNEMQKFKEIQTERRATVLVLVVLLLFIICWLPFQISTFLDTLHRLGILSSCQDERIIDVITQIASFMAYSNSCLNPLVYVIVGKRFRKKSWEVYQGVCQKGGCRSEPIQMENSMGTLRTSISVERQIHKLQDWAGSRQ

In assay [10] the target is T6, Muscarinic acetylcholine receptor M1 (Homo sapiens, UniProt P11229).
T6 sequence (P11229 whole entry): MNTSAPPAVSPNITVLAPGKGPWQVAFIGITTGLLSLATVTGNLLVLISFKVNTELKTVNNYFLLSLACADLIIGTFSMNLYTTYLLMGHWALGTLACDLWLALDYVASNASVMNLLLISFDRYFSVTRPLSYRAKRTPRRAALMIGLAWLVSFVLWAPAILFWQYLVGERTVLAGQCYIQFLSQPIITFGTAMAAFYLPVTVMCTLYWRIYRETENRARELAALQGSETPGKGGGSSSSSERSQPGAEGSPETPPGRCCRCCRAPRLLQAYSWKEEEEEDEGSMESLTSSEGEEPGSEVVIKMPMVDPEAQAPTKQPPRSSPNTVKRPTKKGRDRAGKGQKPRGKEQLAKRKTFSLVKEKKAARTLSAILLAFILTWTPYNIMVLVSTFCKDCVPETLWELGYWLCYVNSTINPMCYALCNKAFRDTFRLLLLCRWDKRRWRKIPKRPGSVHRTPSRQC
The format is functional.
Also: assay procedure not described here.

Neuronal acetylcholine receptor subunit alpha-4, sequence (P43681 whole entry): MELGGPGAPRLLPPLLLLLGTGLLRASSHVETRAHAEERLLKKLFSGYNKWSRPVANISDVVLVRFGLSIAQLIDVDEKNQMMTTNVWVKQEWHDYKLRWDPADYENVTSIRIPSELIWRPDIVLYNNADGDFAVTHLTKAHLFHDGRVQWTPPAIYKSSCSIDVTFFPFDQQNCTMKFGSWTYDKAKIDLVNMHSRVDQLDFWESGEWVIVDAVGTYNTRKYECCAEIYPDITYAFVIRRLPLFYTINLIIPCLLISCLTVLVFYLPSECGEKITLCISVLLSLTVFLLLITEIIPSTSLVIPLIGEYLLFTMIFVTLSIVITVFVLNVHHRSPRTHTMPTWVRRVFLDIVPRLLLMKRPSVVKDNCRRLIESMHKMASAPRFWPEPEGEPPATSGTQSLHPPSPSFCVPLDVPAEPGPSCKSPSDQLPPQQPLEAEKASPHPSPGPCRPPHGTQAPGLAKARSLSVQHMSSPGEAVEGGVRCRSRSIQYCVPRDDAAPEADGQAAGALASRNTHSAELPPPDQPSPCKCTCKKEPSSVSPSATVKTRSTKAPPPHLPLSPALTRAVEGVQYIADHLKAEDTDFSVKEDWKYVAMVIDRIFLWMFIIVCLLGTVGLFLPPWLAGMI
Kappa-type opioid receptor, sequence (P41145 whole entry): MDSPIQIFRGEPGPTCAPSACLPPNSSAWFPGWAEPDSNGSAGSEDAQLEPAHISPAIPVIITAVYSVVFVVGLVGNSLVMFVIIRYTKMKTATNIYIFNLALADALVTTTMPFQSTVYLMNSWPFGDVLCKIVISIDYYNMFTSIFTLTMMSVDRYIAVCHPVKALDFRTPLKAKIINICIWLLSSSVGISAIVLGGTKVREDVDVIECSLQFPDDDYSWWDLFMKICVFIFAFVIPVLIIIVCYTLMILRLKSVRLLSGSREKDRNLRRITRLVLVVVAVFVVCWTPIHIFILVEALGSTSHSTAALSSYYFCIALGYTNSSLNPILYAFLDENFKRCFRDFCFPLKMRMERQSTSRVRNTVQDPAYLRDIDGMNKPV
Voltage-gated inwardly rectifying potassium channel KCNH2, sequence (Q12809 whole entry): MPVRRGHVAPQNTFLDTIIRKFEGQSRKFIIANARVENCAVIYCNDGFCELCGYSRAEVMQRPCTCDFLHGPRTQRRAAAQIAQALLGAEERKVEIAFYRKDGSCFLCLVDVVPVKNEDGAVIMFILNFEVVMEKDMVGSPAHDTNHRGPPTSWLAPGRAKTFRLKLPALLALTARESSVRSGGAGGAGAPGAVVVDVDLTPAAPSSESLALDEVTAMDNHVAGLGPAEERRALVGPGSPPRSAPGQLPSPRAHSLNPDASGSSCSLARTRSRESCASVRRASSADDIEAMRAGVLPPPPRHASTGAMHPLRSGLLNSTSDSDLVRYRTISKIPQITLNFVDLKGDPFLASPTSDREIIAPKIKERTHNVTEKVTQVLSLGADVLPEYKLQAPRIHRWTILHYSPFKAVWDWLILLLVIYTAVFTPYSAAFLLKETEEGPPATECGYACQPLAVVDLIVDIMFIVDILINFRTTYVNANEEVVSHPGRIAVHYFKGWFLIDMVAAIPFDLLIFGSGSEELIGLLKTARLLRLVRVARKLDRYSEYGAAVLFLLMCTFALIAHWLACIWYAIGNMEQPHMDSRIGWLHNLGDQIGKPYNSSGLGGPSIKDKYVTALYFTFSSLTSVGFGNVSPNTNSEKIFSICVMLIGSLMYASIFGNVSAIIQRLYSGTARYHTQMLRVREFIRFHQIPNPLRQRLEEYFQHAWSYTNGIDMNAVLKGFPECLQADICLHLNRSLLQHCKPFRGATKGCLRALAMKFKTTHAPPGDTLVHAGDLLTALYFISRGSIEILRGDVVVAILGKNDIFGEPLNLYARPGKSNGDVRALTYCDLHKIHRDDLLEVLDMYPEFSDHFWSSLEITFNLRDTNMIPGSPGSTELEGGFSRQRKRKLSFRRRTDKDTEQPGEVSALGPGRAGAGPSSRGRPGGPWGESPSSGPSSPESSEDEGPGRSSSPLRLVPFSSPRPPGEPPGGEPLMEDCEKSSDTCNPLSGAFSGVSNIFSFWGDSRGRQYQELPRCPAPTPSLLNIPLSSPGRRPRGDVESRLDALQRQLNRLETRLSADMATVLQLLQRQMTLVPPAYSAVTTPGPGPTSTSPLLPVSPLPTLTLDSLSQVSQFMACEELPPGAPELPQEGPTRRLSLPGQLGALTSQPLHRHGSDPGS
Gamma-aminobutyric acid receptor subunit alpha-1, sequence (P62813 whole entry): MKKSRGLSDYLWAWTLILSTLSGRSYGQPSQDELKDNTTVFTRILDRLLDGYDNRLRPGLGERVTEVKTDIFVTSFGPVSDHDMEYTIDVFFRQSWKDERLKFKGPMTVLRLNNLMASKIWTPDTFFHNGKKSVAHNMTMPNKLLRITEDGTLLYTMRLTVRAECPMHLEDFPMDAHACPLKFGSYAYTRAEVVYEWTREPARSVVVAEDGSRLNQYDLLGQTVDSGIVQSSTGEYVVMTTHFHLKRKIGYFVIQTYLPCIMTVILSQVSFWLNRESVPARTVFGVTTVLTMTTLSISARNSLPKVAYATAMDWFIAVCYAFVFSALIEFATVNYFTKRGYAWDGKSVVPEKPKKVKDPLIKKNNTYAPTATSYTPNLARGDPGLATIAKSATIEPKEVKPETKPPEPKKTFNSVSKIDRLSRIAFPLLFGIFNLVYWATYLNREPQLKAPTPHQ
Beta-1 adrenergic receptor, sequence (P08588 whole entry): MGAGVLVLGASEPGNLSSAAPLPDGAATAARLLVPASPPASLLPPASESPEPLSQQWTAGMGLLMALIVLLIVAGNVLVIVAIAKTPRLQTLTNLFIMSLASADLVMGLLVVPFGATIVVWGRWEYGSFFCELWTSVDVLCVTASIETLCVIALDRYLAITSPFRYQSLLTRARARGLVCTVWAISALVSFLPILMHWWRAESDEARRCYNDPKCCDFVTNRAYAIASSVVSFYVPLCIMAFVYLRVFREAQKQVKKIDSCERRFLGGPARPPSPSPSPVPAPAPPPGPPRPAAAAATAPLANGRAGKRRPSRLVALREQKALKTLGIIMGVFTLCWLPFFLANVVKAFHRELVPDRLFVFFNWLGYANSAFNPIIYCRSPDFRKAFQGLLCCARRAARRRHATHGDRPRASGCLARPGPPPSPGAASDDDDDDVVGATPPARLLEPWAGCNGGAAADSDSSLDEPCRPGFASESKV

As to `CCOC(=O)[C@H](CCc1ccccc1)N[C@@H](C)C(=O)N1Cc2ccccc2C[C@H]1C(=O)O`, the AC50 in [1] was above 30 µM; in assay [2], above 10 µM; in assay [3], above 10 µM; in assay [4], above 10 µM; in assay [5], above 10 µM; in assay [6], above 10 µM. The concentration at half-maximal activity (AC50) in [7] was above 30 µM; in [8] it was above 10 µM; in assay [9], above 30 µM; on B2 bradykinin receptor it was above 30 µM.
With `O=C(O)COC(=O)Cc1ccccc1Nc1c(Cl)cccc1Cl` [ACECLOFENAC], the concentration at half-maximal activity (AC50) in assay [1] is above 30 µM; in assay [2], above 10 µM; in assay [3] it was above 30 µM; in [4] it was above 10 µM; in [5], above 10 µM; in [6], above 10 µM. The AC50 in assay [7] was above 30 µM; in assay [8] it was above 10 µM; in assay [9], above 30 µM; at B2 bradykinin receptor, above 30 µM.
Turning to `NCCCCCC(=O)O` [AMINOCAPROIC ACID], the concentration at half-maximal activity (AC50) in [1] is above 30 µM; in assay [2], above 10 µM; in assay [3], above 30 µM; in [4], above 10 µM; in [5], above 10 µM; in assay [6], above 10 µM. Further, the concentration at half-maximal activity (AC50) in [7] was above 10 µM; in assay [8], above 10 µM; in assay [9] it was above 30 µM; on B2 bradykinin receptor, above 10 µM.
Turning to `CC(=O)Oc1ccccc1C(=O)O` [ASPIRIN], the half-maximal activity concentration (AC50) is above 30 µM in assay [1]; above 10 µM in assay [2]; above 30 µM in [3]; above 10 µM in assay [4]; above 10 µM in assay [5]; above 10 µM in assay [6]. The AC50 (in assay [7]; in [8]; in assay [9]; on B2 bradykinin receptor) was above 30 µM in each case.
`O=C(Cc1cccs1)N[C@@H]1C(=O)N2C(C(=O)[O-])=C(C[n+]3ccccc3)CS[C@H]12` [CEPHALORIDINE]: the AC50 in assay [1], in [2], in assay [10], in assay [3], in assay [5] and in assay [8] was above 30 µM each time.
Turning to `COC(=O)CCc1ccc(OCC(O)CNC(C)C)cc1` (stereo unspecified) [ESMOLOL], the AC50 in assay [1] is above 30 µM; in [2], above 30 µM; in assay [3], above 30 µM; in [4] it was 0.856 µM; in assay [5], above 30 µM; in assay [6] it was above 30 µM. Moreover, the AC50 (in [7]; in assay [8]; in assay [9]; at B2 bradykinin receptor) was above 30 µM in each case.
Take `NCC1(CC(=O)O)CCCCC1` [GABAPENTIN]: the AC50 in [1] was above 30 µM; in assay [2], above 10 µM; in [3], above 30 µM; in assay [4], above 30 µM; in [5], above 30 µM; in assay [6], above 30 µM. For the same molecule, the AC50 (in [7]; in assay [8]; in assay [9]; at B2 bradykinin receptor) was above 30 µM throughout.
Turning to `O=C(c1ccccc1)c1ccc2n1CCC2C(=O)O` (stereo unspecified) [KETOROLAC], the concentration at half-maximal activity (AC50) is above 30 µM in [1]; above 30 µM in assay [2]; above 30 µM in assay [3]; above 10 µM in assay [4]; above 30 µM in assay [5]; above 10 µM in assay [6]. For the same molecule, the AC50 is above 10 µM in assay [7], above 30 µM in assay [8], above 10 µM in [9] and above 10 µM on B2 bradykinin receptor.
As for `Nc1nnc(-c2cccc(Cl)c2Cl)c(N)n1` [LAMOTRIGINE], the AC50 in assay [2] was above 10 µM; in [3] it was above 30 µM; in assay [4], above 10 µM; in assay [5] it was above 10 µM; in assay [6], above 10 µM; in assay [7], above 30 µM. For the same molecule, the values for the AC50 (in assay [8]; in assay [9]; at B2 bradykinin receptor) were above 10 µM, above 30 µM and above 30 µM, respectively.
Turning to `CS(=O)(=O)Nc1ccc([N+](=O)[O-])cc1Oc1ccccc1` [NIMESULIDE], the AC50 in assay [1] is above 30 µM; in [2] it was above 30 µM; in assay [3] it was 26 µM; in assay [4], above 30 µM; in [5], above 30 µM; in assay [6], 21 µM. For the same molecule, the concentration at half-maximal activity (AC50) in assay [7] was 20 µM; in assay [8], above 30 µM; in assay [9] it was 15 µM; at B2 bradykinin receptor, 20 µM.
Turning to `C#CCN(C)Cc1ccccc1` [PARGYLINE], the AC50 in assay [1], in assay [2], in [10], in [3], in [5] and in assay [8] was above 30 µM in each case.
With `CCC1(c2ccccc2)C(=O)NCNC1=O` [PRIMIDONE], the AC50 in [1] was above 30 µM; in assay [2] it was above 10 µM; in [3], above 30 µM; in assay [4], above 10 µM; in assay [5], above 10 µM; in assay [6], above 10 µM. The AC50 in assay [7] is above 30 µM; in assay [8], above 10 µM; in assay [9], above 10 µM; on B2 bradykinin receptor, above 10 µM.
With `Cc1c(C)c2c(c(C)c1O)CCC(C)(COc1ccc(CC3SC(=O)NC3=O)cc1)O2` (stereo unspecified) [TROGLITAZONE], the concentration at half-maximal activity (AC50) in assay [1] is above 30 µM; in assay [2], 18 µM; in [3], above 30 µM; in assay [4], 20 µM; in assay [5], above 30 µM; in assay [6], above 30 µM. The concentration at half-maximal activity (AC50) in assay [7] is 15.5 µM; in [8], above 30 µM; in assay [9] it was above 30 µM; on B2 bradykinin receptor, above 30 µM.

The term AC50 denotes the midpoint of the concentration-response curve, whichever way the signal moves.

These data come from ChEMBL document CHEMBL5291721, “A preclinical secondary pharmacology resource illuminates target-adverse drug reaction associations of marketed drugs” (Nat Commun, 2023).
